Results as given in US8168178B2, “Methods and compositions for regulating lymphocyte activity” (Curis, Inc., priority 1999, dated 2012).

Columns and labels:
[1] = test system: thymocytes in Shh−/− FTOC; test: FTOC of E14.5 Shh−/− thymus explants treated with recombinant Shh; assay type: cell-based, mouse
Description: As thymocyte cellularity and differentiation were reduced in Shh−/− thymi, we examined if we could promote thymocyte development in Shh−/− thymus explants by treatment with recombinant Shh. We have previously shown that treatment of wildtype FTOC with between 0.3 to 1 μg/ml recombinant Shh arrested thymocyte development at the DN stage (Outram et al., 2000). […] We treated Shh−/− thymus explants for 7 days with 0.5 or 0.0005 μg/ml recombinant Shh. Treatment with 0.5 μg/ml Shh inhibited differentiation from DN to DP cells. In a typical experiment, 5.2% of thymocytes were DP in the treated cultures compared with 36.6% in control cultures (FIG. 12, D and E). Thus, Shh−/− thymocytes were able to respond to a Shh signal in the same way as wildtype thymocytes, despite the fact that they had not been exposed to Shh in vivo. Although this high dose of Shh arrested thymocyte differentiation, some activation of the Hh signalling pathway is clearly necessary for normal thymocyte differentiation. We therefore treated Shh−/− explants with a 1000-fold lower dose of recombinant Shh (0.0005 μg/ml). Treatment of Shh−/− thymus explants with low-dose Shh promoted differentiation to DP cell: After 7 days in culture Shh−/− thymus explants treated with 0.0005 μg/ml Shh contained more DP thymocytes than untreated Shh−/− thymus explants −41.6% DP thymocytes and 32.7% DN thymocytes in treated Shh−/− thymus explants, compared with 36.6% DP cells and 43.1% DN cells in untreated control Shh−/− thymus cultures (FIG. 9b).
We repeated these experiments by treating individual Shh−/− thymus lobes with recombinant Shh and comparing them to untreated cultures of the other lobe from the same embryo (summarized in FIG. 12F, cell production in each culture condition compared with that in the control lobe are shown on a log scale).
(§1) Thymocyte suspensions were prepared by crushing thymi between two pieces of ground glass. Cells were stained using combinations of the following directly conjugated antibodies obtained from BD Pharmingen: anti-CD44FITC, anti-CD44Cychrome, anti-CD25 PE, anti-CD25 FITC, anti-CD4FITC, anti-CD8 Cychrome, anti-CD4PE, anti-CD4Cychrome, anti-CD8FITC, anti-CD45.1PE, anti-CD45.2FITC, anti-CD3PE and anti-TCR-βPE. Cell suspensions were stained with the antibodies for 30 minutes on ice in 50 μl of Dulbeccos modified medium (Life Technologies), supplemented with 5% FCS and 0.1% sodium azide. Cells were washed in this medium between incubations and prior to analysis on the FACScan (Becton Dickinson). Events were collected in list mode using CellQuest software and data analysed using CellQuest Pro software. Live cells were gated according to their FSC and SSC profiles. Data are representative of at least three experiments.
(§2) Fetal thymi were dissected from E14.5 Shh +/+, +/− and −/− mice and cultured on 8 μm pore size Millipore filters (Millipore) in AIM-V serum free medium (Life Technologies). Thymi were cultured at 37° C. and 5% CO2 for 3 or 6 days or cultured in the presence of 0.5 μg/ml or 0.0005 μg/ml modified human Shh (Curis) for 7 days.

[2] = test system: thymocytes in wild-type FTOC; settings: cited from earlier work
[3] = test system: thymocytes in wild-type FTOC; test: Fetal thymic organ culture (FTOC) of wild-type thymus, flow cytometry of thymocyte subsets; assay type: cell-based, mouse
Description: Utilizing a fetal thymic organ culture (FTOC), the effects of Shh on T-cell maturation was determined. Briefly, immature thymocytes (CD4^−/CD8^− [DN]) were isolated from E14 thymus. The cells were culture for about 7 days, and the level of mature thymocytes, e.g., CD4^+/CD8^+ [DP], was assessed. In certain cultures, octyl-modified Shh was added to the culture; in other cultures, the anti-hedgehog 5E1 antibody was added.
We have previously shown that treatment of wild-type FTOC with between 0.3 and 1 μg/ml recombinant Shh arrested thymocyte development at the DN stage (Outram et al., Immunity 13: 187, 2000). This arrest was not due to nonspecific toxicity of the recombinant Shh, but was a genuine biological effect, as it could be neutralized by addition of anti-Hh mAb. […] Therefore, we decided to determine whether treatment of FTOC with lower concentrations of Shh could promote thymocyte development. We treated wild-type FTOC for 5 days with 0.0005 μg/ml Shh or 0.5 μg/ml Shh. In a typical experiment, treatment with 0.5 μg/ml Shh arrested thymocyte development at the DN stage, and <1% of thymocytes were DP compared with 7.6% in the control cultures, whereas treatment with 0.0005 μg/ml Shh promoted thymocyte development, and 15.2% of cells were DP (FIG. 12A). […] Treatment with 0.5 μg/ml inhibited both the production of DP cells and the overall cell recovery, and this inhibition was neutralized by addition of anti-Hh mAb, confirming that the arrest in thymocyte development was not the result of non-specific toxicity of the reagent (FIG. 12B). Thus, in wild-type FTOC, treatment with different concentrations of recombinant Shh can produce distinct outcomes at the transition from DN to DP cells; high-dose Shh treatment arrests thymocyte development, but treatment with a 1000-fold lower dose promotes the production of DP cells (FIG. 12, A-C).
as §1, §2

Shh: hydrophobically modified human Shh signalling protein, N-octyl-malemide coupled to amino-terminal cysteine of bacterially derived N-shh (Curis)
DN thymocytes ([1]; Shh−/− explants, 7 days, 0.0005 μg/ml Shh, untreated 43.1%): 32.7%
thymocytes that were DP ([1]; Shh−/− explants, 7 days, 0.5 μg/ml Shh, control cultures 36.6%): 5.2%
production of DP cells ([1]; Shh−/− explants, low dose treatment (0.0005 μg/ml), overall): more than doubled
cell number compared to control ([1]; Shh−/− explants, low-dose Shh (0.0005 μg/ml)): increased
differentiation from DN to DP cells ([1]; Shh−/− thymus explants, 0.5 μg/ml Shh): inhibited
overall cell production and differentiation to DP cell ([1]; individual Shh−/− thymus lobes, high dose Shh): inhibited
thymocyte development at the DN3 stage, after TCRβ chain gene rearrangement ([2]; in vitro treatment of FTOC (Outram et al. 2000)): arrested
thymocyte development at the DN stage ([2]; wild-type FTOC, between 0.3 and 1 μg/ml recombinant Shh (Outram et al. 2000)): arrested
percentage of cells with markers indicative of immature thymocytes ([3]; E14 thymus, about 7 days culture, high dose of Shh 0.5 μg/ml): increase
Shh concentration at which Hedgehog functions as an immunosuppressant ([3]; FTOC, FIG. 12B): more than 0.1 μg/ml
promotion of thymocyte development ([3]; wild-type FTOC, 0.00005 μg/ml): lost
cells that were DP ([3]; wild-type FTOC, 5 days, 0.0005 μg/ml Shh, control cultures 7.6%): 15.2%
thymocytes that were DP ([3]; wild-type FTOC, 5 days, 0.5 μg/ml Shh, control cultures 7.6%): < 1%
